Experimental data: paper PMC7870846, “Incorporation of sensing modalities into de novo designed fluorescence-activating proteins” (Nature Communications, 2021)
Marks after values point to notes of the source that are not given here.

What was measured:
[1] = cited from earlier work
[2] = molecular target: T1, mFAP2b; experiment: Fluorescence titration of DFHBI or DFHBI-1T into 20.0 nM purified protein in high-salt Tev cleavage buffer (25.0 mM Tris, 100 mM NaCl, pH 8.00), excitation 468 nm and emission 530 nm, means of eight technical replicates fit to a single-binding site isotherm.; details: n = 8
T1 construct: de novo designed beta-barrel; large-scale purification and SEC
From the text: (§1) Fig. 1 Characterization of brighter and chromophore-specific mFAPs. a Computational model of de novo designed β-barrel variant mFAP2b showing protein backbone (cartoon) and bound DFHBI chromophore (sticks). b, c Chemical structures of DFHBI and DFHBI-1T, respectively. d, e In vitro titration of d DFHBI or e DFHBI-1T with mFAP2 (gray), mFAP2b (lime), mFAP2a (violet), and mFAP10 (pink) proteins. Error bars represent s.d. of the mean of eight technical replicates. […] The images (left) are the pseudocolored normalized fluorescence intensity per pixel. Scale bars represent 10 microns. Imaging was independently repeated twice with similar results. The computational models (right) show the residues unique to mFAP2b (V13, M15) (lime sticks) or mFAP2a (A13, F15) (violet sticks). Intermolecular hydrogen bonds to the chromophore are shown as black dotted lines. […] Source data is available for Fig. 1f–i.
(§2) Fluorescence endpoints were measured on a Synergy Neo2 hybrid multi-mode reader (BioTek) in flat bottom, black polystyrene, non-binding surface 96-well microplates (Corning 3650). In measuring chromophore-binding affinities (Fig. 1d, e), mFAP2, mFAP2a, and mFAP2b, and mFAP10 were produced by large-scale protein purification and SEC purification. Proteins were aliquoted in eight technical replicates in 200 μL final volumes to 20.0 nM final concentration in ten serial dilutions ( 10 dilution factor) of DFHBI starting from 31.6 μM DFHBI or 31.6 μM DFHBI-1T final concentrations, including an eleventh condition without chromophore. Fluorescence was excited at λex = 468 nm and fluorescence emission measured at λem = 530 nm. Background fluorescence endpoints of wells with identical chromophore concentrations but purified protein replaced with an identical volume of high-salt Tev cleavage buffer were measured, and fluorescence endpoints subtracted from those measured with protein. Background-subtracted data were averaged and the means normalized from 0 to 1 and fit to a single-binding site isotherm function using non-linear least squares fitting to obtain a fitted Kd value (Table 1), and the fit scaled to the maximum mean value (Fig. 1d, e).

[3] = molecular target: T2, mFAP2a; experiment: as above; details: n = 8
T2 construct: de novo designed beta-barrel; large-scale purification and SEC
From the text: as §1, §2

[4] = molecular target: T3, mFAP10; experiment: as above; details: n = 8
T3 construct: de novo designed beta-barrel; large-scale purification and SEC
From the text: as §1, §2

[5] = molecular target: T4, mFAP_pH; experiment: Fluorescence titration of DFHBI into 500 nM protein in Na2HPO4-citrate buffer with 143 mM NaCl at pH 3.61 (excitation 379 nm, emission 498 nm), fit to a single-binding site isotherm.; details: read-out: affinities (Kd values), phenolic form of DFHBI
T4 construct: de novo designed beta-barrel; large-scale protein purification
Method: (§3) In measuring the protonated (phenolic) and deprotonated (phenolate) DFHBI affinities with mFAP_pH (Supplementary Fig. 5c), fluorescence endpoints were measured on a Synergy Neo2 hybrid multi-mode reader (BioTek) in flat bottom, black polystyrene, non-binding surface 96-well microplates (Corning 3650). mFAP_pH was produced by large-scale protein purification[49] and aliquoted to 200 μL final volumes at 500 nM final concentration in seven serial dilutions ( 10 dilution factor) of DFHBI starting from 10.0 μM DFHBI final concentration, including an eighth condition without chromophore, in Na2HPO4-citrate buffer supplemented with 143 mM NaCl final concentration at either pH 3.61 or pH 7.34. For pH 3.61 fluorescence was excited at λex = 379 nm and fluorescence emission measured at λem = 498 nm, and for pH 7.34 fluorescence was excited at λex = 483 nm and fluorescence emission measured at λem = 503 nm. At each pH, background fluorescence endpoints of wells with identical chromophore concentrations but purified protein replaced with an identical volume of buffer were measured, and fluorescence endpoints subtracted from those measured with protein. Background-subtracted data were normalized from 0 to 1 and fit to a single-binding site isotherm function using non-linear least squares fitting to obtain the reported Kd values, which were less than the protein concentrations tested.

[6] = molecular target: T4, mFAP_pH; experiment: Fluorescence titration of DFHBI into 500 nM protein in Na2HPO4-citrate buffer with 143 mM NaCl at pH 7.34 (excitation 483 nm, emission 503 nm), fit to a single-binding site isotherm.; details: read-out: affinities (Kd values), phenolate form of DFHBI
Method: as §3

[7] = test system: SERCA pumps; experiment: Pharmacological inhibition of SERCA Ca2+ pumps in cardiomyocytes; format: cell-based, human; details: 20.0 µM final; 3.00 µM DFHBI
Method: Pharmacological inhibition of SERCA Ca^2+ pumps: Cardiomyocytes in 2.0 mL of Tyrode’s solution labeled with 3.00 µM DFHBI were imaged at 2 Hz for 30 min with an sCMOS camera (Photometrics Prime95B) and 20x magnification lens (Leica HCX PL FLUOTAR L 20x/0.40 NA CORR). A stock solution of 20.0 mM cyclopiazonic acid (CPA) (Tocris, 1235) in 100% anhydrous DMSO was prepared. Two milliliters of Tyrode’s solution containing 3.00 µM DFHBI and 40.0 µM CPA was administered at ~10 min from initial image acquisition to inhibit SERCA pumps and disrupt Ca^2+ recovery into the SR after contraction. Fluorescence fold-change over the whole field of view in each frame was calculated by Eq. (11), where F is the fluorescence per frame, and F0 is the fluorescence at the first frame (Supplementary Fig. 19c).

[8] = pH-dependent fluorescence assays (pH titration); format: biochemical; details: from pH 8.38 to pH 4.79
Method: In measuring pH-dependent fluorescence (Fig. 3d–i), Na2HPO4-citrate buffer supplemented with 150 mM NaCl at unique pH values were produced via mixing various volumes of 100 mM citric acid (Sigma Aldrich), 200 mM Na2HPO4 (Sigma Aldrich), and 2.00 M NaCl, and final pHs quantified via an Accumet AB15 Basic pH meter (Fisher Scientific). pHRed and pHluorin2 were produced via large-scale protein purification, 6xHis-tag removal and size-exclusion chromatography (SEC) purification, and mFAP_pH and mFAP2b were produced via large-scale protein purification and SEC purification. pH-dependent fluorescence was measured at […] final protein concentration for mFAP2b, mFAP_pH and pHRed, and 170 nM final concentration for pHluorin2, at each pH in technical triplicate in 200 μL final volumes per well. […] In measuring fluorescence excitation spectra at each pH (Fig. 3d), excitation wavelengths were set to the range λex = 300–530 nm and fluorescence emission measured at λem = 562 nm. In measuring pH-dependent fluorescence excitation spectra at pH 3.76 and pH 7.34 (Fig. 3f, g), excitation spectra were measured using excitation wavelengths in the range λex = 300–540 nm and emission wavelength λem = 592 nm. […]

| Compound | Reported quantum yield [1] | Kd [2] [nM] | Kd [3] [nM] | Kd [4] [nM] | further results |
| --- | --- | --- | --- | --- | --- |
| CC1=N/C(=C\c2cc(F)c(O)c(F)c2)C(=O)N1C [DFHBI, 3,5-difluoro-4-hydroxybenzylidene imidazolinone] | 0.0007^e |  |  |  | Absolute quantum yield [1]: 0.001^f; pKa ([1]; free, unbound in solution): ~ 5.4 |
| CC1=N/C(=C\c2cc(F)c(O)c(F)c2)C(=O)N1CC(F)(F)F [DFHBI-1T, (Z)-4-(3,5-difluoro-4-hydroxybenzylidene)-2-methyl-1-(2,2,2-trifluoroethyl)-1H-imidazol-5(4 H)-one] | 0.00098^e |  |  |  |  |
| CC1=N/C(=C\c2cc(F)c(O)c(F)c2)C(=O)N1CC(F)(F)F [DFHBI-1T, (Z)-4-(3,5-difluoro-4-hydroxybenzylidene)-2-methyl-1-(2,2,2-trifluoroethyl)-1H-imidazol-5(4H)-one] |  | 11000 ± 3100 | 5800 ± 860 | 45 ± 6.5 |  |
| CC1=N/C(=C\c2cc(F)c(O)c(F)c2)C(=O)N1C [DFHBI] |  | 1800 ± 250 | 150 ± 11 | 17 ± 7.9 | Kd [5]: ~190 nM; Kd [6]: ~160 nM |
| CC(=O)C1=C(O)[C@@H]2[C@H]3c4c[nH]c5cccc(c45)C[C@H]3C(C)(C)N2C1=O [cyclopiazonic acid] |  |  |  |  | effect on SR fluorescence of EF1n_mFAP2b sensor [7]: sustained increase in fluorescence in the SR |
| pHRed: previously reported pH sensor protein [reference compound] |  |  |  |  | fold-change in ratiometric fluorescence (Fratio) [8]: ~ 34 fold |
